Measured values taken from US5086066A, “Method of providing anxiolytic and antipsychotic treatment with substituted benzamides” (priority 1988, dated 1992).

Assays:
mice = assay: two compartment (dark and light) box test, anxiolytic activity; format: in vivo; conditions: for % time in black compartment / Black compartment rearings/5 min / Black compartment transits/5 min / Delay white → black / White compartment rearings/5 min / White compartment transits/5 min: 40 min after administration, S.E.M. <12.6%, n = 5
Description: The two compartment box test was conducted in mice to evaluate anxiolytic activity. This test is based on a natural aversion of mice to light. The apparatus used is a box containing two compartments, one of which is dark (labeled "black compartment" in the Table 1) and the other illuminated (labeled "white compartment" in Table 1). The apparatus is designed to allow the animal to choose between staying in either of the two compartments. Under normal conditions, the mice avoid light and usually remain in the dark compartment. Under the influence of an anxiolytic agent, however, exploration of the illustrated compartment predominates. The test consists of placing each mouse in the center of the illuminated compartment and observing the animal's behavior by video system for 5 minutes. The number of exploratory rearings and the number of displacements (the crossing of lines traced on the floor of each compartment constitute "passages") are then recorded for each compartment. An anxiolytic effect induced by a drug, such as diazepam, is characterized by an increase in the number of exploratory rearings and in the number of passages into the illuminated compartment. The compounds of the invention were injected subcutaneously at variable doses, each dose being administered to a group of 5 mice.

rats = assay: hyperactivity induced by injection of amphetamine into the nucleus accumbens (motor activity), antipsychotic activity; format: in vivo
Description: Tests were conducted to measure the antipsychotic activity of the compounds of the invention. In particular, the hyperactivity induced in rats by the perfusion of amphetamine into the nucleus accumbens was evaluated. This test consists in determining the effect of the compounds of the invention on hyperactivity produced in rats by the injection of amphetamine into the nucleus accumbens. Hyperactivity was induced by injecting 20 μg of amphetamine bilaterally into the nucleus accumbens. The compounds of the invention were administered subcutaneously at doses of 1 mg/kg and 10 mg/kg, 40 minutes before the injection of amphetamine. For each dose of test product, a group of 5 animals was used. A group treated only with amphetamine and a reference group which received only an inert vehicle comprised 10 animals.
Immediately after the injection of amphetamine, the rats were placed in individual cages equipped with photoelectric cells. Motor activity, characterized by the number of shifts from place to place in these cages, was determined by the number of interruptions of a light beam striking these cells. The measurements were made during the 80 minutes following the injection of amphetamine. The results, expressed as the number of shifts from place to place per 10-minute period, are collated in Table 2.

[1] = acute toxicity, median lethal dose (LD50) intravenously; conditions: mouse, in vivo, iv
Source text: The compounds of the invention were also subjected to a study of acute toxicity when injected intravenously in male mice and female mice, which enabled the median lethal doses (LD50) to be determined.

## CCN(CC)CCNC(=O)c1cc(Cl)c(NC2=NC(C)CN2)cc1OC (stereo not drawn) [Compound 1, N-[2-(diethylamino)ethyl]-2-methoxy-4-[(4,5-dihydro-4-methyl-1H-imidazol-2-yl)amino]-5-chlorobenzamide]
mice; 0.01 mg/kg s.c.
  % time in black compartment: 36%
  Black compartment rearings/5 min: 16 rearings/5 min
  Black compartment transits/5 min: 37 transits/5 min
  Delay white → black: 19 s
  White compartment rearings/5 min: 57 rearings/5 min
  White compartment transits/5 min: 77 transits/5 min
mice; 0.1 mg/kg s.c.
  % time in black compartment: 27%
  Black compartment rearings/5 min: 14 rearings/5 min
  Black compartment transits/5 min: 23 transits/5 min
  Delay white → black: 22 s
  White compartment rearings/5 min: 73 rearings/5 min
  White compartment transits/5 min: 79 transits/5 min
mice; Mus musculus, sc, 40 min, subcutaneous, mice, read-out: dose at and above which anxiolytic activity is manifested
  minimal effective dose: ≥ 0.01 mg/kg
rats; 1 mg/kg s.c. 40 min before amphetamine 20 μg, time 10 min
  Motor activity: 49 ± 9 shifts from place to place/10 minutes
rats; 1 mg/kg s.c. 40 min before amphetamine 20 μg, time 20 min
  Motor activity: 35 ± 3 shifts from place to place/10 minutes
rats; 1 mg/kg s.c. 40 min before amphetamine 20 μg, time 30 min
  Motor activity: 45 ± 8 shifts from place to place/10 minutes
rats; 1 mg/kg s.c. 40 min before amphetamine 20 μg, time 40 min
  Motor activity: 40 ± 8 shifts from place to place/10 minutes
rats; 1 mg/kg s.c. 40 min before amphetamine 20 μg, time 50 min
  Motor activity: 11 ± 3 shifts from place to place/10 minutes
rats; 1 mg/kg s.c. 40 min before amphetamine 20 μg, time 60 min
  Motor activity: 12 ± 2 shifts from place to place/10 minutes
rats; 1 mg/kg s.c. 40 min before amphetamine 20 μg, time 70 min
  Motor activity: 8 ± 1 shifts from place to place/10 minutes
rats; 10 mg/kg s.c. 40 min before amphetamine 20 μg, time 10 min
  Motor activity: 27 ± 4 shifts from place to place/10 minutes
rats; 10 mg/kg s.c. 40 min before amphetamine 20 μg, time 20 min
  Motor activity: 27 ± 6 shifts from place to place/10 minutes
rats; 10 mg/kg s.c. 40 min before amphetamine 20 μg, time 30 min
  Motor activity: 13 ± 3 shifts from place to place/10 minutes
rats; 10 mg/kg s.c. 40 min before amphetamine 20 μg, time 40 min
  Motor activity: 11 ± 2 shifts from place to place/10 minutes
rats; 10 mg/kg s.c. 40 min before amphetamine 20 μg, time 50 min
  Motor activity: 8 ± 2 shifts from place to place/10 minutes
[1]; female mice
  LD50: 24 mg/kg
[1]; male mice
  LD50: 19.5 mg/kg
